This is an account of results in BindingDB's records for patent US20240335427 (Dana-Farber Cancer Institute, 2024).

As usually defined, the IC50 is the concentration at which inhibition is half-maximal. Read a high IC50 as a need for much substance.

The target in this test is Josephin-1 (Homo sapiens, UniProt Q15040). The text has this:
Human JOSD1 protein was purified according to standard protocols.

SMILES strings stand for the structures.

As to `N#CN1CC[C@@H](C(=O)Nc2nc3ccc(-c4ccc5[nH]ncc5c4)cc3s2)C1` [US20240335427, Compound 7], half-maximal inhibition (IC50) was put at 95 nM.
